In patent publication US6903098B1, “Use of phthalazine derivatives” (Abbott GmbH & Co., priority 1999, dated 2005):

Test system: PARP 1
Experiment: HTRF assay for PARP 1 inhibitory effect
Format: biochemical, human or bovine
Details: at 10 μM
Source text: In the HTRF PARP assay according to the invention, histones, as target proteins for modification by PARP, are labeled indirectly with an XL665 fluorophore. The antibody is labeled directly with a europium cryptate. If the XL665 fluorophore is in the direct vicinity in space, which is ensured by binding to the poly(ADP-ribose) on the histone, then an energy transfer is possible. The emission at 665 nm is thus directly proportional to the amount of bound antibody, which in turn is equivalent to the amount of poly(ADP-ribose). The measured signal thus corresponds to the PARP activity. The principle of measurement is depicted diagrammatically in FIG. 7. The materials used are identical to those used in the ELISA (see above) unless expressly stated.
Histones were dissolved in a concentration of 3 mg/ml in Hepes buffer (50 mM, pH=7.5). Biotinylation took place with sulfo-NHS-LC-biotin (Pierce, #21335T). A molar ratio of 4 biotin per histone was used. The incubation time was 90 minutes (RT). The biotinylated histones were then purified on a G25 SF HR10/10 column (Pharmacia, 17-0591-01) in Hepes buffer (50 mM, pH=7.0) in order to remove excess biotinylation reagent. […]
Measurement was then possible after 30 minutes (up to 4 hours). […] The Ki values were calculated as described for the ELISA. […]

## O=c1[nH]nc(CN2CCN(c3ccccc3)CC2)c2ccccc12 [4-(4-phenylpiperazin-1-yl)methyl-2H-phthalazin-1-one]
  inhibition of PARP 1: 38%
